Entries after “also recorded” stand apart in the source; their conditions may differ.
Experiments:
[1] = test system: Kunming strain mice; experiment: Acute toxicity study, single IV or IP injection, 14 days observation; format: in vivo
Procedure: (§1) The conjugate obtained from example 8 was used as the testing reagent in the following study, while native Cyclovirobuxine D was used as positive control. Both samples were dissolved in sodium acetate (pH 5.7) before injection.
Kunming strain mice, 50% male and 50% formale, weighing 19-21 g, were randomly divided into 5 groups in the study. (1) native Cyclovirobuxine D, (2) the conjugate of PEG and Cyclovirobuxine D. The mice were fasted 12 hours before the injections. Each mice was given a single injection, and the volume for both IV and IP injection was based on 0.3 ml/10 g formulation. […] After 14 days, the mice still alive were executed and then analyzed.

[2] = test system: pituitrin-induced myocardial ischemic injury; experiment: Effect on pituitrin-induced myocardial ischemic injury (routine leads ECG: T wave, cardioverter); format: in vivo, SD rats; conditions: for effect on the cardioverter, in words: comparison with the controls groups, P>0.05; for inhibition of the rising of T wave by pituitrin-induced, in words: in 15 sec
Procedure: as §1
Methods: 50 normal SD rats of each sex, weighting 180-220 g, were randomly divided into five groups: controls, low dose of native Cyclovirobuxine D (0.25 mg/kg); middle dose of native Cyclovirobuxine D (0.5 mg/kg); low dose of the conjugate of Cyclovirobuxine D (0.25 mg/kg); middle dose of the conjugate of Cyclovirobuxine D (0.5 mg/kg). All rats were fasted before experiment for 12 hours, 1 g/kg urethane was administered by abdominal injection for anesthesia of the rats, and were placed in dorsal recumbency. A needle electrode was inserted into extremity subsurface carefully, examination leads ECG, holding 30 min, records the routine leads ECG The drug was given via vein of […] tail for each groups, after 10 min, 1.5 u/kg pituitrin was injected into dorsal veins of tongue, limited in 10 sec, records the routine leads ECG in 15 s, 30 s, 1, 2, 3, 5, 7, 10, 15 min after injected.

[3] = low dose 0.25 mg/kg iv, 1′ after pituitrin
[4] = low dose 0.25 mg/kg iv, 2′ after pituitrin
[5] = low dose 0.25 mg/kg iv, 3′ after pituitrin
[6] = low dose 0.25 mg/kg iv, 5′ after pituitrin
[7] = low dose 0.25 mg/kg iv, 7′ after pituitrin
[8] = low dose 0.25 mg/kg iv, 10′ after pituitrin
[9] = low dose 0.25 mg/kg iv, 15′ after pituitrin
[10] = low dose 0.25 mg/kg iv, 15″ after pituitrin 1.5 u/kg
[11] = low dose 0.25 mg/kg iv, 30″ after pituitrin
[12] = middle dose 0.5 mg/kg iv, 1′ after pituitrin
[13] = middle dose 0.5 mg/kg iv, 2′ after pituitrin
[14] = middle dose 0.5 mg/kg iv, 3′ after pituitrin
[15] = middle dose 0.5 mg/kg iv, 5′ after pituitrin
[16] = middle dose 0.5 mg/kg iv, 7′ after pituitrin
[17] = middle dose 0.5 mg/kg iv, 10′ after pituitrin
[18] = middle dose 0.5 mg/kg iv, 15′ after pituitrin
[19] = middle dose 0.5 mg/kg iv, 15″ after pituitrin 1.5 u/kg
[20] = middle dose 0.5 mg/kg iv, 30″ after pituitrin
[21] = middle dose 0.5 mg/kg iv, time 0

CN[C@@H](C)[C@H]1[C@H](O)C[C@@]2(C)[C@@H]3CC[C@H]4C(C)(C)[C@@H](NC)CC[C@@]45C[C@@]35CC[C@]12C [native Cyclovirobuxine D, Cyclovirobuxine D]
LD50 in IP injection ([1]; Kunming mice, single IP injection, 14 days observation): 97.52 mg/kg | LD50 in IV injection ([1]; Kunming mice, single IV injection, 14 days observation): 11.77 mg/kg | effect on the cardioverter, in words [2]: no significantly effect | effect on the cardioverter, in words ([2]; listed as Native Cyclovirobuxine D): no significant effect | cardioverter (X ± S) [2, 3]: 228.3 ± 44.41 | rising of T wave (X ± S) [2, 3]: 0.22 ± 0.08 | cardioverter (X ± S) [2, 4]: 250.3 ± 29.14 | rising of T wave (X ± S) [2, 4]: 0.18 ± 0.065 | cardioverter (X ± S) [2, 5]: 267.6 ± 44.71 | rising of T wave (X ± S) [2, 5]: 0.21 ± 0.072 | cardioverter (X ± S) [2, 6]: 266.4 ± 30.09 | rising of T wave (X ± S) [2, 6]: 0.22 ± 0.081 | cardioverter (X ± S) [2, 7]: 270.6 ± 30.52 | rising of T wave (X ± S) [2, 7]: 0.21 ± 0.076 | cardioverter (X ± S) [2, 8]: 289.8 ± 43.91 | rising of T wave (X ± S) [2, 8]: 0.23 ± 0.075 | cardioverter (X ± S) [2, 9]: 315.0 ± 63.39 | rising of T wave (X ± S) [2, 9]: 0.24 ± 0.081 | cardioverter (X ± S) [2, 10]: 351.6 ± 90.78 | rising of T wave (X ± S) [2, 10]: 0.50 ± 0.092 | cardioverter (X ± S) [2, 11]: 202.9 ± 42.85 | rising of T wave (X ± S) [2, 11]: 0.23 ± 0.061 | cardioverter (X ± S) ([2]; low dose 0.25 mg/kg iv, time 0): 392.4 ± 48.11 | rising of T wave (X ± S) ([2]; low dose 0.25 mg/kg iv, time 0): 0.20 ± 0.040 | cardioverter (X ± S) [2, 12]: 196.2 ± 52.90 | rising of T wave (X ± S) [2, 12]: 0.23 ± 0.068 | cardioverter (X ± S) [2, 13]: 215.4 ± 45.47 | rising of T wave (X ± S) [2, 13]: 0.23 ± 0.051 | cardioverter (X ± S) [2, 14]: 236.7 ± 47.92 | rising of T wave (X ± S) [2, 14]: 0.23 ± 0.047 | cardioverter (X ± S) [2, 15]: 256.6 ± 51.26 | rising of T wave (X ± S) [2, 15]: 0.24 ± 0.040 | cardioverter (X ± S) [2, 16]: 268.6 ± 53.15 | rising of T wave (X ± S) [2, 16]: 0.25 ± 0.048 | cardioverter (X ± S) [2, 17]: 260.8 ± 93.87 | rising of T wave (X ± S) [2, 17]: 0.27 ± 0.044 | cardioverter (X ± S) [2, 18]: 297.6 ± 41.30 | rising of T wave (X ± S) [2, 18]: 0.26 ± 0.040 | cardioverter (X ± S) [2, 19]: 331.1 ± 41.18 | rising of T wave (X ± S) [2, 19]: 0.34 ± 0.119 | cardioverter (X ± S) [2, 20]: 234.5 ± 85.06 | rising of T wave (X ± S) [2, 20]: 0.19 ± 0.116 | cardioverter (X ± S) [2, 21]: 389.6 ± 46.56 | rising of T wave (X ± S) [2, 21]: 0.21 ± 0.052 | inhibition of the rising of T wave by pituitrin-induced, in words ([2]; middle dose groups, 0.5 mg/kg, vs control group P<0.01): could inhibit

α-methoxy-polyethylene-glycol-ω-glu-glu-gly-Cyclovirobuxine D ester [Example 8]
toxicity compared with native Cyclovirobuxine D, in words ([1]; iv and ip administration, from LD50): lower toxicity | effect on the cardioverter, in words ([2]; listed as the conjugate of Cyclovirobuxine D): no significantly effect; also recorded: no significant effect | cardioverter (X ± S) [2, 3]: 150 ± 96.44 | rising of T wave (X ± S) [2, 3]: 0.25 ± 0.062 | cardioverter (X ± S) [2, 4]: 180 ± 60.00 | rising of T wave (X ± S) [2, 4]: 0.22 ± 0.102 | cardioverter (X ± S) [2, 5]: 200 ± 56.57 | rising of T wave (X ± S) [2, 5]: 0.28 ± 0.071 | cardioverter (X ± S) [2, 6]: 240 ± 69.28 | rising of T wave (X ± S) [2, 6]: 0.33 ± 0.056 | cardioverter (X ± S) [2, 7]: 260 ± 44.72 | rising of T wave (X ± S) [2, 7]: 0.35 ± 0.067 | cardioverter (X ± S) [2, 8]: 260 ± 44.72 | rising of T wave (X ± S) [2, 8]: 0.32 ± 0.052 | cardioverter (X ± S) [2, 9]: 300 ± 91.65 | rising of T wave (X ± S) [2, 9]: 0.33 ± 0.069 | cardioverter (X ± S) [2, 10]: 270 ± 145.94 | rising of T wave (X ± S) [2, 10]: 0.24 ± 0.059 | cardioverter (X ± S) [2, 11]: 200 ± 128.06 | rising of T wave (X ± S) [2, 11]: 0.17 ± 0.123 | cardioverter (X ± S) ([2]; low dose 0.25 mg/kg iv, time 0): 420 ± 60.00 | rising of T wave (X ± S) ([2]; low dose 0.25 mg/kg iv, time 0): 0.25 ± 0.064 | inhibition of the rising of T wave by pituitrin-induced, in words ([2]; low dose groups, 0.25 mg/kg, vs control groups P<0.01): could inhibit | cardioverter (X ± S) [2, 12]: 180 ± 60.00 | rising of T wave (X ± S) [2, 12]: 0.28 ± 0.049 | cardioverter (X ± S) [2, 13]: 200 ± 56.57 | rising of T wave (X ± S) [2, 13]: 0.27 ± 0.029 | cardioverter (X ± S) [2, 14]: 240 ± 0.00 | rising of T wave (X ± S) [2, 14]: 0.28 ± 0.029 | cardioverter (X ± S) [2, 15]: 260 ± 44.72 | rising of T wave (X ± S) [2, 15]: 0.31 ± 0.059 | cardioverter (X ± S) [2, 16]: 280 ± 56.57 | rising of T wave (X ± S) [2, 16]: 0.31 ± 0.059 | cardioverter (X ± S) [2, 17]: 280 ± 56.57 | rising of T wave (X ± S) [2, 17]: 0.30 ± 0.065 | cardioverter (X ± S) [2, 18]: 280 ± 56.57 | rising of T wave (X ± S) [2, 18]: 0.33 ± 0.072 | cardioverter (X ± S) [2, 19]: 340 ± 44.72 | rising of T wave (X ± S) [2, 19]: 0.33 ± 0.123 | cardioverter (X ± S) [2, 20]: 260 ± 107.70 | rising of T wave (X ± S) [2, 20]: 0.22 ± 0.107 | cardioverter (X ± S) [2, 21]: 420 ± 60.00 | rising of T wave (X ± S) [2, 21]: 0.23 ± 0.046

From patent US20070048252A1, “Conjugates of the hydrophilic polymer and the molecules from boxwood extraction, and pharmaceutical compositions of the conjugates” (Beijingn Jenkem Technology CO., Ltd., priority 2003, published 2007)
